In brackets after ≈: the same amount, converted by molar mass. Several values for one entry are separate records, joined by “and”; a condition that tells them apart may be missing. Identical values can stand only once. Like-named read-outs stand apart in the source and are kept apart here.
Tests used:
[1] = the highest pKa value at 25 °C; ref 42 and references of Table S2; cited from earlier work
[2] = Drug nucleation induction time (UV extinction at 440 nm); assay type: physicochemical; conditions: for induction time at 160 μg/mL: no polymer, 37 °C
[3] = cited from earlier work
[4] = guinea pig, in vivo; cited from earlier work
physchem [5] = test: physchem
[6] = rats, PTM with hydroxypropyl-β-cyclodextrin; cited from earlier work
[7] = Glass transition temperature by DSC; assay type: physicochemical; conditions: for reduced glass transition temperature (Tg/Tm): calculated as Tg/Tm
Protocol: The glass transition temperature (Tg) of ASD samples was measured by a TA Q2000 differential scanning calorimeter (DSC) equipped with an RCS90 refrigeration unit (TA Instruments, New Castle, DE). The temperature calibration was performed using indium and tin, while enthalpy calibration was conducted with indium. The samples (5–10 mg) were added to aluminum pans with a pinhole lid (Tzero pan, TA Instrument, DE). The sample was equilibrated at −20 °C and heated from −20 to 210 °C at 5 °C/min then cooled back down to −20 °C at 10 °C/min under a nitrogen flow of 50 mL/min. The heating and cooling cycle was repeated three times to remove residual solvent and thermal history, and the last cycle was used for analysis.

[8] = monkeys, PTM suspension in 0.5% sodium carboxymethyl cellulose; cited from earlier work
[9] = not given; remark: listed apart in the source
physchem [10] = conditions: kinetic from dmso stock
[11] = humans, 200 mg PTM with high-calorie, high-fat meal; cited from earlier work

In the case of `CN(C)CCO` [2-Dimethylaminoethanol], the pKa [1] is given as 9.23.

With `O=[N+]([O-])c1cn2c(n1)OC[C@@H](OCc1ccc(OC(F)(F)F)cc1)C2` [PTM, Pretomanid] the induction time [2] was 77.6 ± 13.6 min and ~77 min, the “induction time at 160 μg/mL” value ([2]; FaSSIF V1 (pH 6.5)) was 0.9 ± 0.3 min and the “induction time at 160 μg/mL” value ([2]; HCl solution (pH 1.6)) was 1.6 ± 0.2 min. For the same molecule, the induction time ([2]; PTM 80 μg/mL, PB (pH 6.5), 100 μg/mL HPMC) was ~22 min, the “nucleation induction time in solution” value ([2]; media of Table 2, no polymer) was “less than 2 min” and the “induction time (no crystallization observed up to)” value ([2]; pH 6.5) was > 1000 min. For the same molecule, the “induction time at 160 μg/mL” value ([2]; phosphate buffer (pH 3.0)) was 1.3 ± 0.1 min, the “induction time at 160 μg/mL” value ([2]; phosphate buffer (pH 5.0)) was 1.6 ± 0.2 min and the “induction time at 160 μg/mL” value ([2]; phosphate buffer (pH 6.5)) was 1.4 ± 0.2 min. The water solubility [3] was 10 to 20 µg/mL, the systemic exposure [4] was 6.7–13.5% and the solubility thermodynamic (physchem [5]) was 15 to 18 µg/mL (≈ 41.8 to 50.1 µM). It also gave a solubility (physchem [5]; 37 °C, pH 1.6, simulated gastric fluid, thermodynamic from solid) of 15.2 ± 1.4 µg/mL (≈ 42.3 µM), a solubility (physchem [5]; 37 °C, pH 3, aqueous buffer, thermodynamic from solid) of 17.8 ± 0.3 µg/mL (≈ 49.5 µM) and a solubility (physchem [5]; 37 °C, pH 5, aqueous buffer, thermodynamic from solid) of 16.8 ± 0.1 µg/mL (≈ 46.8 µM). The solubility (physchem [5]; 37 °C, pH 5.8, aqueous buffer, thermodynamic from solid) was 17 ± 0.3 µg/mL (≈ 47.3 µM), the solubility (physchem [5]; 37 °C, pH 5.8, fessif, thermodynamic from solid) was 108.1 ± 0.1 µg/mL (≈ 301 µM) and the solubility (physchem [5]; 37 °C, pH 6.5, aqueous buffer, thermodynamic from solid) was 16.2 ± 1.4 µg/mL (≈ 45.1 µM). The solubility (physchem [5]; 37 °C, pH 6.5, fassif, thermodynamic from solid) was 53.8 ± 4 µg/mL (≈ 150 µM), the solubility (physchem [5]; pH 5.8) was ~110 µg/mL (≈ 306 µM) and the mean oral bioavailability [6] was 52%. For the same molecule, the “reduced glass transition temperature (Tg/Tm)” value [7] was 0.67, the “Tg (glass transition temperature)” value ([7]; neat drug) was 10 °C and the “factor of increase of equilibrium solubility” value (pH 5.8) was ~6. The “factor of increase of equilibrium solubility” value (pH 6.5) was ~3, the mean oral bioavailability [8] was 19% and the “A/C ratio (amorphous/crystalline solubility ratio)” value ([9]; HCl solution (pH 1.6)) was 9.3. The “amorphous/crystalline solubility (A/C) ratio” value ([9]; buffer solutions, overall) was 8–10, the “A/C ratio (amorphous/crystalline solubility ratio)” value ([9]; phosphate buffer (pH 3.0)) was 8.1 and the “A/C ratio (amorphous/crystalline solubility ratio)” value ([9]; phosphate buffer (pH 5.0)) was 9.5. The “A/C ratio (amorphous/crystalline solubility ratio)” value ([9]; phosphate buffer (pH 6.5)) was 10.2, the solubility (physchem [10]; pH 1.6, simulated gastric fluid) was 141 ± 3.7 µg/mL (≈ 392 µM) and the solubility (physchem [10]; pH 3, aqueous buffer) was 143 ± 2.4 µg/mL (≈ 399 µM). The solubility (physchem [10]; pH 5, aqueous buffer) was 160 ± 5.7 µg/mL (≈ 444 µM), the solubility (physchem [10]; pH 6.5, aqueous buffer) was 166 ± 6.2 µg/mL (≈ 462 µM) and the solubility (physchem [10]; pH 6.5, fassif) was 308 ± 12 µg/mL (≈ 857 µM). For the same molecule, the “increase in AUC0-inf with food” value [11] was 88% and the “increase in Cmax with food” value [11] was 76%.

In the case of `C[C@]1(COc2ccc(N3CCC(Oc4ccc(OC(F)(F)F)cc4)CC3)cc2)Cn2cc([N+](=O)[O-])nc2O1` [delamanid], the “Tg (glass transition temperature)” value ([3]; neat drug) is given as ~43 °C and the “reduced glass transition temperature (Tg/Tm)” value [7] is given as 0.64.
